Results on 4 compounds are retold here after ChEMBL document CHEMBL1121684, “Selective and potent beta 2-adrenoceptor agents within the tetrahydroisoquinoline class: effect of methyl substitution at the benzylic carbon of the 1-(3,4,5-trimethoxybenzyl) group of trimetoquinol” (J Med Chem, 1981).

Test [1] addresses Beta-2 adrenergic receptor (Cavia porcellus) (UniProt Q8K4Z4).
Description: Beta-2 adrenergic receptor activity in guinea pig tracheal smooth muscle
In test [2] the test system is Beta-1 adrenergic receptor (Cavia porcellus). The settings on record: Cardiac atrium.

Molecules are shown by their SMILES.

Sequence of Beta-2 adrenergic receptor (Cavia porcellus) (Q8K4Z4 whole entry, looked up): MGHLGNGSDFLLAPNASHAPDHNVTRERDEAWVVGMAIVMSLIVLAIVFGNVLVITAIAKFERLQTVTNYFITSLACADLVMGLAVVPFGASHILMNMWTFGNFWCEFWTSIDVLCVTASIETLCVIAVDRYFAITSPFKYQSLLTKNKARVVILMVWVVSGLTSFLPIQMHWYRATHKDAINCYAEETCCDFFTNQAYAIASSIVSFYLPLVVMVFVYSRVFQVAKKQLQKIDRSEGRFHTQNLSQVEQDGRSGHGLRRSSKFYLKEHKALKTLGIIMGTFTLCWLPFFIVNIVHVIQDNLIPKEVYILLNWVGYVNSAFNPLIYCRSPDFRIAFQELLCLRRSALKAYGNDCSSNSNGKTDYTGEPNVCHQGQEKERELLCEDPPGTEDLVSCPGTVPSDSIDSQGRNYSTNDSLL

`COc1cc(C[C@@H]2NCCc3cc(O)c(O)cc32)cc(OC)c1OC`: the pD2 in test [1] was determined as 8.15. Take `COc1cc(C(C)(C)[C@@H]2NCCc3cc(O)c(O)cc32)cc(OC)c1OC`: in test [1], the pD2 was 4.47.

On to `COc1cc([C@@H](C)[C@@H]2NCCc3cc(O)c(O)cc32)cc(OC)c1OC`, for which the pD2 was 7.35 in test [2] and 8.39 in test [1].

`COc1cc([C@H](C)[C@@H]2NCCc3cc(O)c(O)cc32)cc(OC)c1OC`: the pD2 was 6.67 in test [2] and 7.15 in test [1].
